For eleven compounds, Emax and IC50 results are on record in patent US7977489B2, “Benzylthiazolone inhibitors of estrogen-related receptors (ERR)” (Exelixis, Inc., priority 2004, dated 2011).

The Emax is the maximal effect, on the per cent scale that the assay sets. As usually defined, the IC50 is the point on the concentration scale where inhibition reaches its midpoint. A low value points to inhibition by little substance.

The test concerns the target T1, ERRα (Homo sapiens, UniProt P11474).
T1 construct: expressed in transfected cells; host or cells: CV-1 (African green monkey kidney) cells, transient transfection with CMX-GAL4-ERRα
T1 sequence (P11474 174-423): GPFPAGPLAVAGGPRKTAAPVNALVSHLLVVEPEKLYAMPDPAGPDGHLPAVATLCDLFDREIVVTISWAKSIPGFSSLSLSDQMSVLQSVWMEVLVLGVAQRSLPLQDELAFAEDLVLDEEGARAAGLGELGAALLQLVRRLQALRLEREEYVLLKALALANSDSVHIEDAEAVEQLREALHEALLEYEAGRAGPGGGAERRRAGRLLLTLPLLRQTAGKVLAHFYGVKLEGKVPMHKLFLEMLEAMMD
Description: GAL4-ERRα co-transfection assay (luciferase reporter, CV-1 cells). The note with it: for Emax: CV-1, average percent inhibition of ERRα activity relative to control 3-[4-(2,4-Bis-trifluoromethyl-benzyloxy)-3-methoxy-phenyl]-2-cyano-N-(5-trifluoromethyl-[1,3,4]thiadiazol-2-yl)-acrylamide; for IC50: average IC50 for inverse agonist activity in the GAL4-ERRα assay, CV-1 cells. The class given is cell-based. On the procedure: Compound activity was also determined in a cell based assay using a GAL4-ERRα chimera to identify active compounds.
CMX-GAL4-ERRα was constructed by cloning nucleotides encoding amino acids 174-423 of ERRα (see GenBank sequence XM048286) into the vector pCMX-GAL4 (Perlmann et al., 1993, Genes & Development 7:1411-1422) comprising nucleotides encoding for amino acids 1-147 of the GAL4 DNA binding domain.
The TK-MH100×4-Luc (GAL4UAS-TK-Luciferase) reporter constructs were constructed by insertion of four copies of the Gal4 UAS (Kang et al. 1993, J. Biol. Chem. 268:9629-9635) into the Hind III site of TK-Luc. The parental plasmid TK-Luc was prepared by insertion of the Herpes simplex virus thymidine kinase gene promoter (−105 to +51) obtained from the plasmid pBLCAT2 by digestion with HindIII and XhoI (described in Luckow et al., 1987, Nuc. Acid. Res. 15:5490) into the plasmid MTV-LUC described by Hollenberg and Evans, 1988, Cell 55:899-906) after removal of MTV-LTR promoter sequence from MTV-LUC via digestion with HindIII and XhoI. Correct cloning was confirmed by restriction digestion and or sequencing.
Assays were performed using CV-1 (African Green Monkey Kidney Cells) (ATCC) cells at 70 percent confluency in T175 flasks grown with media containing 10% charcoal/Dextran-treated fetal bovine serum. Cells were transiently transfected with a DNA mixture containing 12 μg of CMX-GAL4-ERRα (comprising the ligand binding domain), […] of TK-MH100×4-Luc, and 2 μg of CMX-βGal using the transfection reagent FuGENE6 (Roche Molecular Biochemicals, Indianapolis, Ind.) following recommended protocols and instructions provided by the manufacturer. Following incubation with transfection reagents for 5 hours at 37° C., cells were washed, removed from the flasks with 1× Trypsin-EDTA solution (Sigma-Aldrich, Inc. St. Louis, Mo., and then resuspended in media containing 5% charcoal/Dextran-treated fetal bovine serum to give a final concentration of 1.1×10^5 cells/ml.
Assay plates were prepared by dispensing approximately 5 μl of each compound into a well of a 384 well plate to achieve a final compound concentration of approximately 10 μM after addition of cells. Cells were added to assay plates (45 μl) via the use of a Multiprop dispenser (MTX Labs, Inc., Vienna, Va.). The assay plates containing both compounds and screening cells were incubated for approximately 20 hours at 37° C. and 5% CO2 in a tissue culture incubator.
After incubation of the transfected cells with compounds, Lysis buffer (1% Triton X-100, 10% Glycerol, 5 mM DTT, 1 mM EGTA, 25 mM Tricine) and Luciferin assay buffer (0.73 mM ATP, 22.3 mM Tricine, 0.11 mM EDTA, 33.3 mM DTT, 0.2M MgSO4, 11 mM Luciferin, 6.1 mM Coenzyme A, 0.01 mM HEPES) were prepared. Media was removed from the plates and lysis buffer and luciferin assay buffer mixed in a 1:1 ratio and then 30 μl was added to each well (384-well plate). Plates were read on the Northstar (Northstar Technologies, Inc., Acton, Mass.) and data was analyzed using ActivityBase (ID Business Solutions, Ltd., Guildford, Surrey, UK). Luciferase values were normalized with β-galactosidase values using the pCMX-βGal expression plasmid, to normalize for transfection efficiency as described previously (Willy et al., 1995, Gene & Development, 9:1033-1045).
No reporter-driven luciferase activity was observed without ERR transfection, indicating the ERR-dependency of the compounds.
The following table provides in vitro ERRα activity data of representative compounds described in the Examples. Average IC50 values for inverse agonist activity in the GAL4-ERRα assay are provided as follows: V: less than 0.5 μM; W: 0.5 μM-1 μM; X: 1 μM to 2 μM and Y: 2 μM to 5 μM. Average percent inhibition with respect to ERRα activity relative to a control (3-[4-(2,4-Bis-trifluoromethyl-benzyloxy)-3-methoxy-phenyl]-2-cyano-N-(5-trifluoromethyl-[1,3,4]thiadiazol-2-yl)-acrylamide) is provided as follows. […]
In general terms: In a reporter assay the amount or activity of a reporter protein is the signal.

Some results are limits rather than exact numbers.

Take `COc1cc(C=C2SC(N3CC(C)OC(C)C3)=NC2=O)ccc1OCc1ccc(C(F)(F)F)cc1C(F)(F)F` (stereo not shown) [5-[1-[4-(2,4-Bis-trifluoromethyl-benzyloxy)-3-methoxy-phenyl]-methylidene]-2-(2,6-dimethyl-morpholin-4-yl)-thiazol-4-one]: the Emax fell in the range of 100 to 120% and the IC50 fell in the range of 1000 to 2000 nM.

The compound `COc1cc(C=C2SC(N3CCCC3c3ccccn3)=NC2=O)ccc1OCc1ccc(C(F)(F)F)cc1C(F)(F)F` (stereo not shown) [5-[1-[4-(2,4-Bis-trifluoromethyl-benzyloxy)-3-methoxy-phenyl]-methylidene]-2-(2-pyridin-2-yl-pyrrolidin-1-yl)-thiazol-4-one] displayed an Emax of 100 to 120% and an IC50 of under 500 nM.

`CCCCCN1CCN(C2=NC(=O)C(=Cc3ccc(OCc4ccc(C(F)(F)F)cc4C(F)(F)F)c(OC)c3)S2)CC1` [5-[1-[4-(2,4-Bis-trifluoromethyl-benzyloxy)-3-methoxy-phenyl]-methylidene]-2-(4-pentyl-piperazin-1-yl)-thiazol-4-one] had an Emax of 80 to 100% and an IC50 of 2000 to 5000 nM.

For the compound `COc1cc(C=C2SC(N3CCCC(c4nc5cc(C)ccc5[nH]4)C3)=NC2=O)ccc1OCc1ccc(C(F)(F)F)cc1C(F)(F)F` (stereo not shown) [5-[1-[4-(2,4-Bis-trifluoromethyl-benzyloxy)-3-methoxy-phenyl]-methylidene]-2-[3-(5-methyl-1H-benzoimidazol-2-yl)-piperidin-1-yl]-thiazol-4-one], the Emax fell in the range of 80 to 100% and the IC50 was in the range of 1000 to 2000 nM.

`COc1cc(C=C2SC(N3CCN(CC4CCN(C)CC4)CC3)=NC2=O)ccc1OCc1ccc(C(F)(F)F)cc1C(F)(F)F` [5-[1-[4-(2,4-Bis-trifluoromethyl-benzyloxy)-3-methoxy-phenyl]-methylidene]-2-[4-(1-methyl-piperidin-4-ylmethyl)-piperazin-1-yl]-thiazol-4-one] yielded an Emax of 80 to 100% and an IC50 of 500 to 1000 nM.

`COc1cc(C=C2SC(N3CCN(Cc4ccc(Cl)cc4)CC3)=NC2=O)ccc1OCc1ccc(C(F)(F)F)cc1C(F)(F)F` [5-[1-[4-(2,4-Bis-trifluoromethyl-benzyloxy)-3-methoxy-phenyl]-methylidene]-2-[4-(4-chloro-benzyl)-piperazin-1-yl]-thiazol-4-one] returned an Emax of 60 to 80% and a 50% inhibitory concentration (IC50) of 2000 to 5000 nM.

In turn, `COc1cc(C=C2SC(N3CCN(C)CC3)=NC2=O)ccc1OCc1ccc(C(F)(F)F)cc1C(F)(F)F` [Example 18, 5-[1-[4-(2,4-Bis-trifluoromethyl-benzyloxy)-3-methoxy-phenyl]-methylidene]-2-(4-methyl-piperazin-1-yl)-thiazol-4-one] yielded an Emax of 100 to 120% and an IC50 of under 500 nM.

On to `COc1cc(C=C2SC(N3CCOCC3)=NC2=O)ccc1OCc1ccc(C(F)(F)F)cc1C(F)(F)F` [Example 19, 5-[1-[4-(2,4-Bis-trifluoromethyl-benzyloxy)-3-methoxy-phenyl]-methylidene]-2-morpholin-4-yl-thiazol-4-one], for which the Emax lay in the range of 80 to 100% and the IC50 fell in the range of 500 to 1000 nM.

In turn, `COc1cc(C=C2SC(N3CCSCC3)=NC2=O)ccc1OCc1ccc(C(F)(F)F)cc1C(F)(F)F` [Example 22, 5-[1-[4-(2,4-Bis-trifluoromethyl-benzyloxy)-3-methoxy-phenyl]-methylidene]-2-thiomorpholin-4-yl-thiazol-4-one] gave an Emax of 100 to 120% and an IC50 of 500 to 1000 nM.

In turn, `COc1cc(C=C2SC(N3CCNCC3)=NC2=O)ccc1OCc1ccc(C(F)(F)F)cc1C(F)(F)F` [Example 23, 5-[1-[4-(2,4-Bis-trifluoromethyl-benzyloxy)-3-methoxy-phenyl]-methylidene]-2-piperazin-1-yl-thiazol-4-one] registered an Emax of 100 to 120% and an IC50 of under 500 nM.

`COc1cc(C=C2SC(N3CCN(S(C)(=O)=O)CC3)=NC2=O)ccc1OCc1ccc(C(F)(F)F)cc1C(F)(F)F` [Example 29, 5-[1-[4-(2,4-Bis-trifluoromethyl-benzyloxy)-3-methoxy-phenyl]-methylidene]-2-(4-methanesulfonyl-piperazin-1-yl)-thiazol-4-one]: the Emax lay in the range of 100 to 120% and the IC50 was under 500 nM.
